Laboratory results from PubChem BioAssay AID1259407 (Chemical Carcinogenesis Research Information System (CCRIS), 2018).
Active and inactive are the calls of the source. How the calls were made is not given here.

System: CCRIS mutagenicity, Ames/micronucleus/aberration tests
Assay: CCRIS mutagenicity studies
[1] = Test System: AMES SALMONELLA TYPHIMURIUM, Strain/Indicator: TA100, Metabolic Activation: NONE, Method: PREINCUBATION
[2] = Test System: AMES SALMONELLA TYPHIMURIUM, Strain/Indicator: TA98, Metabolic Activation: NONE, Method: STANDARD PLATE
[3] = Test System: AMES SALMONELLA TYPHIMURIUM, Strain/Indicator: TA100, Metabolic Activation: NONE, Method: STANDARD PLATE

CC(=O)CN(CC(C)=O)N=O
mutagenic call (Test System: AMES SALMONELLA TYPHIMURIUM, Strain/Indicator: TA100, Metabolic Activation: HAMSTER, LIVER, S-9, 3-METHYLCHOLANTHRENE, Method: PREINCUBATION): active; positive
mutagenic call (Test System: AMES SALMONELLA TYPHIMURIUM, Strain/Indicator: TA100, Metabolic Activation: HAMSTER, LIVER, S-9, PHENOBARBITAL, Method: PREINCUBATION): active; positive
mutagenic call (Test System: AMES SALMONELLA TYPHIMURIUM, Strain/Indicator: TA100, Metabolic Activation: HAMSTER, LIVER, S-9, Method: PREINCUBATION): active; positive
mutagenic call (Test System: AMES SALMONELLA TYPHIMURIUM, Strain/Indicator: TA100, Metabolic Activation: HUMAN, LIVER, S-9, Method: PREINCUBATION): active; positive
mutagenic call (Test System: AMES SALMONELLA TYPHIMURIUM, Strain/Indicator: TA100, Metabolic Activation: MONKEY, LIVER, S-9, Method: PREINCUBATION): active; positive
mutagenic call (Test System: AMES SALMONELLA TYPHIMURIUM, Strain/Indicator: TA100, Metabolic Activation: MOUSE, LIVER, S-9, 3-METHYLCHOLANTHRENE, Method: PREINCUBATION): active; positive
mutagenic call (Test System: AMES SALMONELLA TYPHIMURIUM, Strain/Indicator: TA100, Metabolic Activation: MOUSE, LIVER, S-9, PHENOBARBITAL, Method: PREINCUBATION): active; positive
mutagenic call (Test System: AMES SALMONELLA TYPHIMURIUM, Strain/Indicator: TA100, Metabolic Activation: MOUSE, LIVER, S-9, Method: PREINCUBATION): active; positive
mutagenic call [1]: inactive; negative
mutagenic call (Test System: AMES SALMONELLA TYPHIMURIUM, Strain/Indicator: TA100, Metabolic Activation: RABBIT, LIVER, S-9, Method: PREINCUBATION): active; positive
mutagenic call (Test System: AMES SALMONELLA TYPHIMURIUM, Strain/Indicator: TA100, Metabolic Activation: RAT, LIVER, CYTOSOL, PCB, Method: PREINCUBATION): active; positive
mutagenic call (Test System: AMES SALMONELLA TYPHIMURIUM, Strain/Indicator: TA100, Metabolic Activation: RAT, LIVER, MICROSOMES AND CYTOSOL, PCB, Method: PREINCUBATION): active; positive
mutagenic call (Test System: AMES SALMONELLA TYPHIMURIUM, Strain/Indicator: TA100, Metabolic Activation: RAT, LIVER, MICROSOMES AND G6PDH, PCB, Method: PREINCUBATION): active; positive
mutagenic call (Test System: AMES SALMONELLA TYPHIMURIUM, Strain/Indicator: TA100, Metabolic Activation: RAT, LIVER, MICROSOMES, PCB, Method: PREINCUBATION): active; positive
mutagenic call (Test System: AMES SALMONELLA TYPHIMURIUM, Strain/Indicator: TA100, Metabolic Activation: RAT, LIVER, S-9 (HEATED), PCB, Method: PREINCUBATION): active; positive
mutagenic call (Test System: AMES SALMONELLA TYPHIMURIUM, Strain/Indicator: TA100, Metabolic Activation: RAT, LIVER, S-9, 3-METHYLCHOLANTHRENE, Method: PREINCUBATION): active; positive
mutagenic call (Test System: AMES SALMONELLA TYPHIMURIUM, Strain/Indicator: TA100, Metabolic Activation: RAT, LIVER, S-9, AROCLOR 1254, Method: PREINCUBATION): active; positive
mutagenic call (Test System: AMES SALMONELLA TYPHIMURIUM, Strain/Indicator: TA100, Metabolic Activation: RAT, LIVER, S-9, N-BENZYLIMIDAZOLE, Method: PREINCUBATION): active; positive
mutagenic call (Test System: AMES SALMONELLA TYPHIMURIUM, Strain/Indicator: TA100, Metabolic Activation: RAT, LIVER, S-9, PCB, Method: PREINCUBATION): active; positive
mutagenic call (Test System: AMES SALMONELLA TYPHIMURIUM, Strain/Indicator: TA100, Metabolic Activation: RAT, LIVER, S-9, PHENOBARBITAL, Method: PREINCUBATION): active; positive
mutagenic call (Test System: AMES SALMONELLA TYPHIMURIUM, Strain/Indicator: TA100, Metabolic Activation: RAT, LIVER, S-9, Method: PREINCUBATION): active; positive
mutagenic call (Test System: AMES SALMONELLA TYPHIMURIUM, Strain/Indicator: TA100, Metabolic Activation: RAT, LIVER, S-9 WITHOUT NADP+, PCB, Method: PREINCUBATION): active; positive
mutagenic call (Test System: AMES SALMONELLA TYPHIMURIUM, Strain/Indicator: TA100, Method: PREINCUBATION): active; positive
mutagenic call (Test System: AMES SALMONELLA TYPHIMURIUM, Strain/Indicator: TA104, Metabolic Activation: RAT, LIVER, S-9, AROCLOR 1254, Method: PREINCUBATION): inactive; negative
mutagenic call (Test System: AMES SALMONELLA TYPHIMURIUM, Strain/Indicator: TA1535, Metabolic Activation: RAT, LIVER, S-9, AROCLOR 1254, Method: PREINCUBATION): active; positive
mutagenic call (Test System: AMES SALMONELLA TYPHIMURIUM, Strain/Indicator: TA1975, Metabolic Activation: RAT, LIVER, S-9, AROCLOR 1254, Method: PREINCUBATION): active; positive
mutagenic call (Test System: CHINESE HAMSTER V-79, Strain/Indicator: V-79/6-THIOGUANINE, Metabolic Activation: HAMSTER, PANCREAS, DUCT CELL-MEDIATED, Method: STANDARD PLATE): active; positive
mutagenic call (Test System: CHINESE HAMSTER V-79, Strain/Indicator: V-79/OUABAIN, Metabolic Activation: HAMSTER, HEPATOCYTES, Method: CELL-MEDIATED): active; positive
mutagenic call (Test System: CHINESE HAMSTER V-79, Strain/Indicator: V-79/OUABAIN, Metabolic Activation: HAMSTER, PANCREAS, ACINAR CELL-MEDIATED, Method: STANDARD PLATE): active; positive

Cc1cccc(CN(C)N=O)c1
mutagenic call (Test System: AMES SALMONELLA TYPHIMURIUM, Strain/Indicator: TA1535, Metabolic Activation: HAMSTER, LIVER, S-9, AROCLOR 1254, Method: STANDARD PLATE): active; positive
mutagenic call (Test System: AMES SALMONELLA TYPHIMURIUM, Strain/Indicator: TA1535, Metabolic Activation: NONE, Method: STANDARD PLATE): inactive; negative

Nc1cc(S(=O)(=O)[O-])cc2c1C(=O)/C(=N\Nc1ccc(-c3ccc(N/N=C4\C(=O)c5c(N)cc(S(=O)(=O)[O-])cc5C=C4S(=O)(=O)[O-])c(O)c3)cc1O)C(S(=O)(=O)[O-])=C2.[Cu].[Cu].[Na+].[Na+].[Na+].[Na+]
mutagenic call (Test System: AMES SALMONELLA TYPHIMURIUM, Strain/Indicator: TA98, Metabolic Activation: HAMSTER, LIVER, S-9, AROCLOR 1254 (10%), Method: PREINCUBATION): inactive; negative
mutagenic call (Test System: AMES SALMONELLA TYPHIMURIUM, Strain/Indicator: TA98, Metabolic Activation: NONE, Method: PREINCUBATION): inactive; negative
mutagenic call (Test System: AMES SALMONELLA TYPHIMURIUM, Strain/Indicator: TA98, Metabolic Activation: RAT, LIVER, S-9, AROCLOR 1254 (10%), Method: PREINCUBATION): inactive; negative
mutagenic call (Test System: AMES SALMONELLA TYPHIMURIUM, Strain/Indicator: TA100, Metabolic Activation: HAMSTER, LIVER, S-9, AROCLOR 1254 (10%), Method: PREINCUBATION): inactive; negative
mutagenic call [1]: inactive; negative
mutagenic call (Test System: AMES SALMONELLA TYPHIMURIUM, Strain/Indicator: TA100, Metabolic Activation: RAT, LIVER, S-9, AROCLOR 1254 (10%), Method: PREINCUBATION): inactive; negative
mutagenic call (Test System: AMES SALMONELLA TYPHIMURIUM, Strain/Indicator: TA1535, Metabolic Activation: HAMSTER, LIVER, S-9, AROCLOR 1254 (10%), Method: PREINCUBATION): inactive; negative
mutagenic call (Test System: AMES SALMONELLA TYPHIMURIUM, Strain/Indicator: TA1535, Metabolic Activation: NONE, Method: PREINCUBATION): inactive; negative
mutagenic call (Test System: AMES SALMONELLA TYPHIMURIUM, Strain/Indicator: TA1535, Metabolic Activation: RAT, LIVER, S-9, AROCLOR 1254 (10%), Method: PREINCUBATION): inactive; negative
mutagenic call (Test System: AMES SALMONELLA TYPHIMURIUM, Strain/Indicator: TA1537, Metabolic Activation: HAMSTER, LIVER, S-9, AROCLOR 1254 (10%), Method: PREINCUBATION): inactive; negative
mutagenic call (Test System: AMES SALMONELLA TYPHIMURIUM, Strain/Indicator: TA1537, Metabolic Activation: NONE, Method: PREINCUBATION): inactive; negative
mutagenic call (Test System: AMES SALMONELLA TYPHIMURIUM, Strain/Indicator: TA1537, Metabolic Activation: RAT, LIVER, S-9, AROCLOR 1254 (10%), Method: PREINCUBATION): inactive; negative
mutagenic call (Test System: AMES SALMONELLA TYPHIMURIUM, Strain/Indicator: TA1538, Metabolic Activation: RAT, LIVER, S-9, AROCLOR 1254, Method: STANDARD PLATE): inactive; negative

CC(=O)OCCO
mutagenic call [2]: inactive; negative
mutagenic call (Test System: AMES SALMONELLA TYPHIMURIUM, Strain/Indicator: TA98, Metabolic Activation: RAT, LIVER, MICROSOMES, Method: STANDARD PLATE): inactive; negative
mutagenic call [3]: inactive; negative
mutagenic call (Test System: AMES SALMONELLA TYPHIMURIUM, Strain/Indicator: TA100, Metabolic Activation: RAT, LIVER, MICROSOMES, Method: STANDARD PLATE): inactive; negative

CCNc1nc(N)nc(Cl)n1
mutagenic call (Test System: AMES SALMONELLA TYPHIMURIUM, Strain/Indicator: TA97, Metabolic Activation: NONE, Method: STANDARD PLATE): inactive; negative
mutagenic call [2]: inactive; negative
mutagenic call [3]: inactive; negative

Cn1cnc(N=O)c1-c1ccccc1
mutagenic call [3]: active; positive
